Experimental data reported in ChEMBL document CHEMBL1772992, “Synthesis, in silico docking experiments of new 2-pyrrolidinone derivatives and study of their anti-inflammatory activity” (Bioorg Med Chem, 2011).
Active and inactive are the calls of the source. The rule behind the calls is not given here.

Tests used:
[1] = test system: Radical scavenging activity; experiment: Antioxidant activity assessed as DPPH free radical scavenging activity after 20 to 60 mins by spectrophotometry; format: functional; parameters: concentration or dose not given beside the values
[2] = test system: Glycine max; experiment: Inhibition of soybean LOX assessed as inhibition of sodium linoleate to 13-hydroperoxylinoleic acid conversion at 0.1 mM by UV-visible spectrophotometry
[3] = Antioxidant activity against AAPH-induced lipid peroxidation assessed as linoleic acid oxidation to diene hydroperoxide at 0.1 mM by UV-visible spectrophotometry; format: functional
[4] = test system: Rattus norvegicus; experiment: Antiinflammatory activity in Fisher 344 rat assessed as inhibition of carrageenan-induced paw edema at 0.01 mmol/kg, ip administered simultaneously with carrageenan measured after 3.5 hrs relative to control; format: functional; conditions: Fisher 344, ip
[5] = Inhibition of soybean LOX assessed as inhibition of sodium linoleate to 13-hydroperoxylinoleic acid conversion by UV-visible spectrophotometry; parameters: species or system Glycine max

Row | SMILES | inhibition [2] | IC50 [5] [µM] | Activity [1] | inhibition [3] | inhibition in vivo at 10 µmol/kg [4] [%]
1 | COc1ccc2c(c1)c(CC(=O)O)c(C)n2C(=O)c1ccc(Cl)cc1 [INDOMETHACIN] |  |  |  |  | 47
2 | CC(Cc1ccc(O)c(O)c1)C(C)Cc1ccc(O)c(O)c1 (stereo not drawn) | 84% |  | 81% |  | 
3 | O=C1CC[C@@H](Cn2ccnc2)N1Cc1cccc(O)c1 | inactive |  | 29% | 13% | 
4 | O=C1CC[C@@H](Cn2ccnc2)N1Cc1ccccc1-c1nn[nH]n1 | 5.2% |  | 30% | 32% | 
5 | O=C(O)/C=C/c1ccc(O)c(O)c1 [CAFFEIC ACID] |  | 600 | 5.5% | 17% | 
6 | Cc1c(C)c2c(c(C)c1O)CCC(C)(C(=O)O)O2 (stereo not drawn) |  |  |  | 63% | 
7 | COC(=O)c1ccc(CN2C(=O)CC[C@H]2Cn2ccnc2)cc1 | inactive |  | 6% | 13% | 

Second part, led by results:

Row | inhibition [2] | IC50 [5] [µM] | SMILES | Activity [1] | inhibition [3] | inhibition in vivo at 10 µmol/kg [4] [%]
8 | 81% |  | O=C(O)c1cncn1C[C@@H]1CCC(=O)N1Cc1ccccc1 | inactive | inactive | 
9 | inactive |  | COC(=O)c1cncn1C[C@@H]1CCC(=O)N1Cc1ccc(C(=O)O)cc1 | 26% | inactive | 
10 | 13% |  | O=C1CC[C@@H](Cn2ccnc2)N1Cc1ccccc1 | 9% | 11% | 
11 |  | 70.5 | COC(=O)c1ccc(CN2C(=O)CC[C@H]2Cn2cncc2C(=O)O)cc1 | 3% | 96% | 34
12 |  | 80 | O=C(O)c1ccc(CN2C(=O)CC[C@H]2Cn2ccnc2)cc1 | 6% | 2% | 41
